This note sets out measurements from patent US9624243B2, “Heterocyclic compounds and methods of their use” (Novartis AG, priority 2012, dated 2017).

SMILES strings stand for the structures.

Chain of AT2 receptor (P50052 whole entry, species assumed): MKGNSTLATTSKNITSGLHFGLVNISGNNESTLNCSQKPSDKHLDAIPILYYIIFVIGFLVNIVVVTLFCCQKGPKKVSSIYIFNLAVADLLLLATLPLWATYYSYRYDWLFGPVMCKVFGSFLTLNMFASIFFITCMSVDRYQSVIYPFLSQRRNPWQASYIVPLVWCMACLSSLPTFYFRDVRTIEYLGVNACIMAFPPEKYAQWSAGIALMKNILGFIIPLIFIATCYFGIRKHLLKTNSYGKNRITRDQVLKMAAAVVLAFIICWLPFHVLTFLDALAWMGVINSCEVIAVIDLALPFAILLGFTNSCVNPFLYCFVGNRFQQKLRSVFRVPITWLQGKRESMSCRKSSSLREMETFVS

This assay concerns the target AT2 receptor (Homo sapiens (Human), UniProt P50052). The experiment in a line: AT2 Receptor Binding. To be noted: HEK293 AT2 receptor transient cell membranes, [125I]-CGP42112A. The protocol:
1. Trypsin-EDTA (for Preparation of 100 mL)
• Dissolve trypsin in 2% EDTA and PBS completely; sterilize the solution by passing through a […] membrane filter; store at 4° C.
2. DMEM Medium (for Preparation of 1 L) • The powder was dissolved into 950 mL of distilled water with gentle stirring until the solution becomes clear. • Add. NaHCO3 1.176 g for DMEM medium. • Adjust pH of medium to 0.2˜0.3 below final working pH using 1 M NaOH or 1 M • HCl. Add slowly with stirring. • Dilute to 1 liter with ddH2O. • Sterilize the medium immediately by filtration. • Store at 4° C.
3. TE Buffer • 20 mM Tris-HCl, pH 7.4, • 5 mM EDTA
4. Binding Assay Buffer • 50 mM Hepes, pH 7.4 • 5 mM MgCl2 • 1 mM CaCl2 • 0.2% BSA
5. Wash Buffer • 50 mM Hepes, pH 7.4 Procedures for HEK293AT2 Receptor Transient Cell Transfection • Cells were plated into 150 mm dish at 50% density for transient transfection. Cells were ready for transfection after overnight incubation (the confluence reaches around 80%). • 75 μL Lipofectamine™2000 diluted in 6.25 mL OptiMEM I Reduced Serum Medium, was mixed gently, and incubated at room temperature for 5 minutes. 50 μg expression plasmid DNA diluted in 6.25 mL OptiMEM I Reduced Serum Medium without serum was mixed gently. • After the 5 minute incubation, the diluted DNA was combined with the diluted Lipofectamine™2000 (total volume is 12.5 mL). The mixture was mixed gently and incubated for 30 minutes at room temperature to allow the DNA-Lipofectamine™2000 complexes to form. • The 12.5 mL DNA-Lipofectamine™2000 complexes were added into the 150 mm dish and mixed gently by rocking the dish back and forth. • The cells were incubated at 37° C. with 5% CO2 for 48 hours. Cells were collected and stored frozen at −80° C. Procedures for HEK293AT2 Receptor Cell Membrane Preparation • Frozen HEK293AT2 receptor (transient transfected) cells were homogenized in ice cold TE buffer for 10s. • The homogenate was centrifuged at 25,000 g for 30 minutes. • The pellet was resuspended in ice cold tissue buffer. • Protein concentrations were determined using Bradford assay method with BSA as standard. • The membrane protein was frozen under −80° C. Compound Preparation
Solutions of all compounds were prepared bymicroplate liquid handling equipment such as Janus or Precision 2000. Compounds, dissolved in DMSO were stored in a Freezer. Compounds were prepared from 30 mM in 100% DMSO.
Step 1: Dose Plate Preparation (96 Well Plate)
• Add the 3 μL [30 mM] compound stock to column 1 on the plate. • Add 15 μL of 100% DMSO to column 1. • Add 10.81 μL of 100% DMSO to column 2-12. • Transfer 5 μL from column 1 into column 2 (half log dilution). • Transfer 5 μL from column 2 into column 3 (half log dilution). • Transfer 5 μL from column 3 into column 4 (half log dilution). • Transfer 5 μL from column 4 into column 5 (half log dilution). • Transfer 5 μL from column 5 into column 6 (half log dilution). • Transfer 5 μL from column 6 into column 7 (half log dilution). • Transfer 5 μL from column 7 into column 8 (half log dilution). • Transfer 5 μL from column 8 into column 9 (half log dilution). • Transfer 5 μL from column 9 into column 10 (half log dilution) • Transfer 5 μL from column 10 into column 11 (half log dilution) • Transfer 5 μL from column 11 into column 12 (half log dilution).
All the compounds were diluted using Precision 2000 microplate liquid handling equipment. The top concentration of compound was 5 mM with 100% DMSO.
Step 2: Working Plate Preparation (96 Well Plate)
• Compounds were diluted 50-fold with buffer. • 49 μL buffer was added to the well of 96 well plate. • 1 μL compound solution from dose plate was transferred to the corresponding well of working plate. • The top concentration of compound was 100 μM with 2% DMSO. Step 3: Assay Plate Preparation (96 Well Plate)
15 μL of compound solution was transferred from each well of working plate to the well of assay plate by Janus.
Regarding `O=C(O)[C@@H]1C[C@H](OC[C@@H]2C[C@H]2c2ccccc2)CN1C(=O)C(c1ccccc1)c1ccccc1` (mixture of isomers) [Compound 16, (2S,4S)-1-(2,2-diphenylacetyl)-4-(((1R,2R)-2-phenylcyclopropyl)methoxy)pyrrolidine-2-carboxylic acid and (2S,4S)-1-(2,2-diphenylacetyl)-4-(((1S,2S)-2-phenylcyclopropyl)methoxy)pyrrolidine-2-carboxylic acid], the IC50 was determined as 6650 nM.
To `O=C(O)[C@@H]1C[C@H](OC[C@@H]2C[C@@H]2c2ccccc2)CN1C(=O)C(c1ccccc1)c1ccccc1` (mixture of isomers) [Compound 17, (2S,4S)-1-(2,2-diphenylacetyl)-4-(((1R,2S)-2-phenylcyclopropyl)methoxy)pyrrolidine-2-carboxylic acid and (2S,4S)-1-(2,2-diphenylacetyl)-4-(((1S,2R)-2-phenylcyclopropyl)methoxy)pyrrolidine-2-carboxylic acid] belongs 3970 nM; to `CN(CCCc1ccccc1)[C@@H]1CN(C(=O)C(c2ccccc2)c2ccccc2)C[C@H]1C(=O)O` (mixture of isomers) [Compound 67, (3R,4S)-1-(2,2-diphenylacetyl)-4-(methyl(3-phenylpropyl)amino)pyrrolidine-3-carboxylic acid and (3S,4R)-1-(2,2-diphenylacetyl)-4-(methyl(3-phenylpropyl)amino)pyrrolidine-3-carboxylic acid], 3660 nM.
To `O=C(O)[C@@H]1[C@@H](OCCCc2ccccc2)CN1C(=O)C(c1ccccc1)c1ccccc1` (mixture of isomers) [Compound 142, (2S,3S)-1-(2,2-diphenylacetyl)-3-(3-phenylpropoxy)-azetidine-2-carboxylic acid and (2R,3R)-1-(2,2-diphenylacetyl)-3-(3-phenylpropoxy)-azetidine-2-carboxylic acid] belongs 993 nM; to `O=C(O)[C@H]1[C@H](OCCCc2ccccc2)CN1C(=O)C(c1ccccc1)c1ccccc1` (mixture of isomers) [Compound 143, (2R,3R)-3-(3-phenylpropoxy)-1-(2,2-diphenylacetyl)-azetidine-2-carboxylic acid and (2S,3S)-3-(3-phenylpropoxy)-1-(2,2-diphenylacetyl)-azetidine-2-carboxylic acid], 372 nM.
To `O=C(O)[C@@H]1C[C@H](N2CCCC2Cc2ccccc2)CN1C(=O)C(c1ccccc1)c1ccccc1` (single isomer, unassigned) [Compound 61-A, (3′S,5′S)-2-benzyl-V-(2,2-diphenylacetyl)-[1,3′-bipyrrolidine]-5′-carboxylic acid] belongs 83.3 nM; to `O=C(O)[C@@H]1C[C@H](N2CCCC2Cc2ccccc2)CN1C(=O)C(c1ccccc1)c1ccccc1` (single isomer, unassigned) [Compound 61-B, (3′S,5′S)-2-benzyl-V-(2,2-diphenylacetyl)-[1,3′-bipyrrolidine]-5′-carboxylic acid], 107 nM; to `O=C(O)[C@@H]1C[C@H](N2CCCCC2Cc2ccccc2)CN1C(=O)C(c1ccccc1)c1ccccc1` (single isomer, unassigned) [Compound 70-A], 49.1 nM.
Turning to `O=C(O)[C@@H]1C[C@H](N2CCCCC2Cc2ccccc2)CN1C(=O)C(c1ccccc1)c1ccccc1` (single isomer, unassigned) [Compound 70-B], the IC50 was 1340 nM.
In the case of `O=C(O)[C@@H]1C[C@H](OCc2ccccc2)CN1C(=O)C(c1ccccc1)c1ccccc1` [Compound 2, (2S,4S)-4-(benzyloxy)-1-(2,2-diphenylacetyl)pyrrolidine-2-carboxylic acid], the IC50 is 114 nM.
For the compound `O=C(O)[C@@H]1C[C@@H](OCc2ccccc2)CN1C(=O)C(c1ccccc1)c1ccccc1` [Compound 3, (2S,4R)-4-(benzyloxy)-1-(2,2-diphenylacetyl)pyrrolidine-2-carboxylic acid], the IC50 amounted to 193 nM.
For `O=C(O)C1Cc2c(OCc3ccccc3)cccc2N1C(=O)C(c1ccccc1)c1ccccc1` (stereo not drawn) [Compound 15, 4-(benzyloxy)-1-(2,2-diphenylacetyl)indoline-2-carboxlic acid] the value was 54.5 nM; for `O=C(O)[C@@H]1C[C@H](N2CCN(c3ccccc3)CC2)CN1C(=O)C(c1ccccc1)c1ccccc1` [Compound 23, (2S,4S)-1-(2,2-diphenylacetyl)-4-(4-phenylpiperazine)pyrrolidine-2-carboxylic acid], 290 nM.
For `O=C(O)[C@@H]1C[C@H](Oc2ccccc2Oc2ccccc2)CN1C(=O)C(c1ccccc1)c1ccccc1` [Compound 35, (2S,4S)-1-(2,2-diphenylacetyl)-4-(2-phenoxyphenoxy)-pyrrolidine-2-carboxylic acid] the value was 540 nM.
The compound `O=C(O)[C@@H]1C[C@H](OCC#Cc2ccccc2)CN1C(=O)C(c1ccccc1)c1ccccc1` [Compound 36, (2S,4S)-1-(2,2-diphenylacetyl)-4-((3-phenylprop-2-yn-1-yl)-oxy)pyrrolidine-2-carboxylic acid] gave an IC50 of 1660 nM.
`O=C(O)[C@@H]1C[C@H](NCCc2ccccc2)CN1C(=O)C(c1ccccc1)c1ccccc1` [Compound 46, (2S,4S)-1-(2,2-diphenylacetyl)-4-(phenethylamino)-pyrrolidine-2-carboxylic acid] yielded an IC50 of 2260 nM.
For `O=C(O)[C@@H]1C[C@H](N2CCC[C@@H](c3ccccc3)C2)CN1C(=O)C(c1ccccc1)c1ccccc1` [Compound 48, (2S,4S)-1-(2,2-diphenylacetyl)-4-((S)-3-phenylpiperidine-1-yl)pyrrolidine-2-carboxylic acid] the value was 89.4 nM; for `O=C(O)[C@@H]1C[C@H](N2CCC[C@H](c3ccccc3)C2)CN1C(=O)C(c1ccccc1)c1ccccc1` [Compound 49, (2S,4S)-1-(2,2-diphenylacetyl)-4-((R)-3-phenylpiperidin-1-yl)pyrrolidine-2-carboxylic acid], 58.8 nM; for `CN(C)S(=O)(=O)NC(=O)[C@@H]1C[C@H](OCCCc2ccccc2)CN1C(=O)C(c1ccccc1)c1ccccc1` [Compound 50], 67.3 nM.
For `O=C(O)[C@@H]1C[C@H](N2CCCC(Cc3ccccc3)C2)CN1C(=O)C(c1ccccc1)c1ccccc1` (stereo partly drawn) [Compound 53, (2S,4S)-4-(3-benzylpiperidin-1-yl)-1-(2,2-diphenylacetyl)-pyrrolidine-2-carboxylic acid] the value was 43.9 nM; for `O=C(O)[C@@H]1C[C@H](COCc2ccccc2)CN1C(=O)C(c1ccccc1)c1ccccc1` [Compound 54], 155 nM; for `O=C(O)[C@@H]1C[C@H](CCOCc2ccccc2)CN1C(=O)C(c1ccccc1)c1ccccc1` [Compound 55, (2S,4R)-4-(2-(benzyloxy)ethyl)-1-(2,2-diphenylacetyl)-pyrrolidine-2-carboxylic acid], 386 nM.
For `O=C(O)[C@@H]1C[C@H](c2ncc(-c3ccccc3)o2)CN1C(=O)C(c1ccccc1)c1ccccc1` [Compound 56] the value was 315 nM; for `O=C(O)[C@@H]1C[C@H](CS(=O)(=O)CCc2ccccc2)CN1C(=O)C(c1ccccc1)c1ccccc1` [Compound 58, (2S,S)-1-(2,2-diphenylacetyl)-4-((phenethylsulfonyl)methyl)pyrrolidine-2-carboxylic acid], 3050 nM.

What is called IC50 is the midpoint of a concentration-inhibition curve. Lower therefore signals greater potency.
